Our source for the OD610 values is patent US10947574B2, “Method for producing fermented carotenoid using carotenoid-producing bacteria obtained by using cobalt-containing culturing medium” (ENEOS CORPORATION, priority 2015, dated 2021).

Each structure is given as a SMILES string.

This test concerns Paracoccus carotinifaciens strain E-396 (FERM BP-4283). In kind it is cell-based. Particulars: each trace metal added singly at final concentration of Table 1; shaking at 28° C. for 4 days. The procedure: Subsequently, a medium of the following composition (glucose 30 g/L, filtered corn steep liquor 30 g/L, ammonium sulfate 1.5 g/L, potassium dihydrogen phosphate 1.5 g/L, disodium hydrogen phosphate dodecahydrate 3.8 g/L, calcium chloride dihydrate 5.0 g/L, magnesium sulfate heptahydrate 0.7 g/L, iron sulfate heptahydrate 1.0 g/L, silicon-based defoaming agent 0.2 g/L) was dispensed in 7.2 ml volumes into cotton-plugged test tubes having an inner diameter of 18 mm to prepare 13 test tubes containing a test tube medium for production. The ingredients used to prepare the test tube medium for production were obtained from lots where microbial cells had been confirmed not to grow well.
The 12 trace metals indicated in Table 1 were separately prepared in 0.8 ml volumes to have their final concentrations indicated in Table 1 and then added to the above 12 test tubes for production, respectively. The remaining one test tube was supplemented with 0.8 ml of ion exchanged water.
The resulting culture solution was then inoculated in 0.05 ml volumes into the 13 types of test tube media for production and cultured under shaking at 28° C. for 4 days at 300 spm.
Take `OB(O)O` [Boric acid]: the OD610 worked out at 4.

`O.O.O.O.O.O.[Cl][Cr]([Cl])[Cl]` [Chromium (III) chloride hexahydrate] returned an OD610 of 3.

Take `[I-].[K+]` [Potassium iodide]: the OD610 stood at 4.

Take `O.O.[Na+].[Na+].[O]=[Mo](=[O])([O-])[O-]` [Sodium molybdate dihydrate]: the OD610 is given as 4.

Compound `O=[Se](=O)(O)O` [Sodium selenate] displayed an OD610 of 3.

In turn, `[Na+].[Na+].[O]=[W](=[O])([O-])[O-]` [Sodium tungstate] yielded an OD610 of 4.
